The test relates to CD2F1 mice, L1210 leukemia ip, survival T/C. As to the kind of experiment: NCI In Vivo Anticancer Drug Screen. Data for tumor model L1210 Leukemia (intraperitoneal) in CD2F1 (CDF1) mice. The settings on record: higher = longer survival. The method in brief:
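Read-out first: treated-group measurement over vehicle-control measurement, expressed as a ratio. Animals bore a transplanted tumor line and were dosed with compound or vehicle.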

Where [1] appears, read: endpoint: mean survival time, dose: 100.0 mg/kg/injection, schedule: Q04DX003 (ip), vehicle: saline with Tween-80.
Setting [2] is: endpoint: mean survival time, dose: 200.0 mg/kg/injection, schedule: Q01DX009 (ip), vehicle: saline with Tween-80.
Setting [3] is: endpoint: mean survival time, dose: 200.0 mg/kg/injection, schedule: Q04DX003 (ip), vehicle: saline with Tween-80.
Where [4] appears, read: endpoint: mean survival time, dose: 400.0 mg/kg/injection, schedule: Q04DX003 (ip), vehicle: saline with Tween-80.
Where [5] appears, read: endpoint: mean survival time, dose: 100.0 mg/kg/injection, schedule: Q04DX002 (ip), vehicle: saline with Tween-80.
Setting [6] is: endpoint: mean survival time, dose: 200.0 mg/kg/injection, schedule: Q04DX002 (ip), vehicle: saline with Tween-80.
The mark [7] stands for this setting: endpoint: mean survival time, dose: 400.0 mg/kg/injection, schedule: Q04DX002 (ip), vehicle: saline with Tween-80.
Setting [8] is: endpoint: mean survival time, dose: 100.0 mg/kg/injection, schedule: Q01DX001 (ip), vehicle: saline with Tween-80.
[9] abbreviates: endpoint: mean survival time, dose: 100.0 mg/kg/injection, schedule: Q01DX009 (ip), vehicle: Klucel (hydroxypropylcellulose) (HPC).
Setting [10] is: endpoint: mean survival time, dose: 200.0 mg/kg/injection, schedule: Q01DX001 (ip), vehicle: saline with Tween-80.
The mark [11] stands for this setting: endpoint: mean survival time, dose: 200.0 mg/kg/injection, schedule: Q01DX009 (ip), vehicle: Klucel (hydroxypropylcellulose) (HPC).
Setting [12] is: endpoint: mean survival time, dose: 400.0 mg/kg/injection, schedule: Q01DX001 (ip), vehicle: saline with Tween-80.
The mark [13] stands for this setting: endpoint: mean survival time, dose: 100.0 mg/kg/injection, schedule: Q01DX009 (ip), vehicle: saline with Tween-80.
[14] abbreviates: endpoint: mean survival time, dose: 400.0 mg/kg/injection, schedule: Q01DX009 (ip), vehicle: saline with Tween-80.

Where “and” joins values, the source holds several entries; their conditions need not be identical. Identical values can stand only once. Inconclusive results and toxic doses are left out.

Take `O=[N+]([O-])c1ccc(/C=N\N=C\c2ccco2)cc1`: the T/C under setting [1] was 88 % of control, the T/C under setting [2] was 86 % of control, the T/C under setting [3] was 111 % of control and the T/C under setting [4] is 102 % of control.
With `COC(=O)/C=N/Nc1ccc(C)cc1`, the T/C runs as follows: (endpoint: mean survival time, dose: 100.0 mg/kg/injection, schedule: Q01DX009 (ip), vehicle: water) 86 % of control; (endpoint: mean survival time, dose: 200.0 mg/kg/injection, schedule: Q01DX009 (ip), vehicle: water) 88 % of control; (endpoint: mean survival time, dose: 400.0 mg/kg/injection, schedule: Q01DX009 (ip), vehicle: water) 86 % of control.
Take `CC(C)(CCC(=O)O)C(=O)c1ccccc1`: the T/C was 98 % of control (endpoint: mean survival time, dose: 50.0 mg/kg/injection, schedule: Q04DX002 (ip), vehicle: saline with Tween-80); 94 % of control under setting [5]; 94 % of control under setting [6].
For `COc1ccc(NC(=O)Nc2ccccc2OC)c(OC)c1`, the T/C under setting [5] is 94 % of control, the T/C under setting [6] is 94 % of control and the T/C under setting [7] was 87 % of control.
Regarding `CCOC(=O)C(=O)Nc1c(C)noc1N`, the T/C is, setting by setting: under setting [8], 109 % of control; under setting [9], 93 % of control; under setting [10], 104 % of control; under setting [11], 93 % of control; under setting [12], 97 % of control; (endpoint: mean survival time, dose: 400.0 mg/kg/injection, schedule: Q01DX009 (ip), vehicle: Klucel (hydroxypropylcellulose) (HPC)) 91 % of control.
On to `O=C(OCC(OC(=O)c1ccccc1)C(OC(=O)c1ccccc1)C(COC(=O)c1ccccc1)OC(=O)c1ccccc1)c1ccccc1` (stereo unspecified), for which the T/C by setting is: (endpoint: mean survival time, dose: 50.0 mg/kg/injection, schedule: Q01DX009 (ip), vehicle: Klucel (hydroxypropylcellulose) (HPC)) 97 % of control; under setting [9], 97 % of control; under setting [11], 86 % of control.
Take `CN=C(N)N/N=C/c1ccccc1`: the T/C (endpoint: mean survival time, dose: 7.5 mg/kg/injection, schedule: Q04DX003 (ip), vehicle: saline) is 95 % of control; the T/C (endpoint: mean survival time, dose: 15.0 mg/kg/injection, schedule: Q04DX003 (ip), vehicle: saline) was 97 % of control; the T/C (endpoint: mean survival time, dose: 30.0 mg/kg/injection, schedule: Q04DX003 (ip), vehicle: saline) was 112 % of control.
For the compound `Cc1cccc(C)c1Nc1n[nH]c(=S)s1`, the T/C is 97 % of control (endpoint: mean survival time, dose: 100.0 mg/kg/injection, schedule: Q01DX001 (ip), vehicle: Klucel (hydroxypropylcellulose) (HPC)); 101 % of control (endpoint: mean survival time, dose: 200.0 mg/kg/injection, schedule: Q01DX001 (ip), vehicle: Klucel (hydroxypropylcellulose) (HPC)); 101 % of control (endpoint: mean survival time, dose: 400.0 mg/kg/injection, schedule: Q01DX001 (ip), vehicle: Klucel (hydroxypropylcellulose) (HPC)).
On to `CCCC(CC)C(=O)CC1CCCCC1` (stereo unspecified), for which the T/C under setting [1] was 105 % of control, the T/C under setting [3] is 94 % of control and the T/C under setting [4] is 98 % of control.
Turning to `CC(C)c1ccc(-n2cnc3c(=O)[nH]c(N)nc32)cc1`, the T/C is, setting by setting: under setting [8], 94 % of control; under setting [10], 94 % of control; under setting [12], 91 % of control.
As for `BrC1(Br)C2COCOCC21` (stereo unspecified), the T/C is, setting by setting: under setting [8], 94 % of control; under setting [10], 94 % of control; under setting [12], 94 % of control.
As to `Clc1ccc(SSc2ccc(Cl)cc2Cl)c(Cl)c1`, the T/C under setting [5] was 90 % of control, the T/C under setting [6] is 104 % of control and the T/C under setting [7] is 95 % of control.
`c1ccc(-c2n[nH]c3ccccc23)cc1`: the T/C by setting is: (endpoint: median survival time, dose: 50.0 mg/kg/injection, schedule: Q04DX002 (ip), vehicle: saline with Tween-80) 100 % of control; (endpoint: median survival time, dose: 100.0 mg/kg/injection, schedule: Q04DX002 (ip), vehicle: saline with Tween-80) 100 % of control; (endpoint: median survival time, dose: 200.0 mg/kg/injection, schedule: Q04DX002 (ip), vehicle: saline with Tween-80) 100 % of control.
For `O=C(CCCCCCCCC(=O)N/N=C\c1ccccc1O)N/N=C\c1ccccc1O`, the T/C (endpoint: mean survival time, dose: 12.5 mg/kg/injection, schedule: Q01DX009 (ip), vehicle: saline with Tween-80) was 97 % of control; the T/C under setting [1] is 98 % of control; the T/C under setting [3] is 93 % of control; the T/C under setting [4] was 93 % of control.
Regarding `CCCOC(=O)c1cc([N+](=O)[O-])c(Sc2ncnc3nc[nH]c23)c([N+](=O)[O-])c1`, the T/C runs as follows: (endpoint: mean survival time, dose: 0.63 mg/kg/injection, schedule: Q01DX005 (ip), vehicle: other) 109 % of control; (endpoint: mean survival time, dose: 1.25 mg/kg/injection, schedule: Q01DX005 (ip), vehicle: other) 116 % of control; (endpoint: mean survival time, dose: 2.5 mg/kg/injection, schedule: Q01DX005 (ip), vehicle: other) 111 % of control; (endpoint: mean survival time, dose: 5.0 mg/kg/injection, schedule: Q01DX005 (ip), vehicle: other) 111 % of control; (endpoint: mean survival time, dose: 10.0 mg/kg/injection, schedule: Q01DX005 (ip), vehicle: other) 121 % of control; (endpoint: mean survival time, dose: 62.5 mg/kg/injection, schedule: Q01DX005 (ip), vehicle: other) 165 % of control. Further, where the note is “endpoint: mean survival time, dose: 125.0 mg/kg/injection, schedule: Q01DX005 (ip), vehicle: other”, the T/C is 101 % of control.
For `OCCOc1ccc2ccccc2c1-c1c(OCCOc2ccc3ccccc3c2-c2c(OCCO)ccc3ccccc23)ccc2ccccc12`, the T/C is, setting by setting: (endpoint: mean survival time, dose: 25.0 mg/kg/injection, schedule: Q01DX001 (ip), vehicle: saline with Tween-80) 95 % of control; (endpoint: mean survival time, dose: 50.0 mg/kg/injection, schedule: Q01DX001 (ip), vehicle: saline with Tween-80) 91 % of control; under setting [8], 86 % of control; under setting [12], 86 % of control.
As to `CCN1C(=O)CC(O)C1=O` (stereo unspecified), the T/C reads like this: (endpoint: mean survival time, dose: 100.0 mg/kg/injection, schedule: Q01DX001 (ip), vehicle: saline) 105 % of control; (endpoint: mean survival time, dose: 200.0 mg/kg/injection, schedule: Q01DX001 (ip), vehicle: saline) 103 % of control; (endpoint: mean survival time, dose: 400.0 mg/kg/injection, schedule: Q01DX001 (ip), vehicle: saline) 103 % of control.
Consider `O=C(Nc1cc(C(F)(F)F)ccc1Cl)c1ccccc1Cl`, for which the T/C is 104 % of control under setting [13]; 103 % of control under setting [1]; 94 % of control under setting [2]; 103 % of control under setting [3]; 104 % of control under setting [14]; 101 % of control under setting [4].
For the compound `O=C(c1ccc(F)cc1)c1ccc([N+](=O)[O-])cc1`, the T/C under setting [13] was 103 % of control, the T/C under setting [2] is 102 % of control and the T/C under setting [14] is 97 % of control.
As for `O=C1C=CC(n2cc(F)c(=O)[nH]c2=O)O1` (stereo unspecified), the T/C was 122 % of control (endpoint: median survival time, dose: 6.25 mg/kg/injection, schedule: Q01DX009 (ip), vehicle: saline with Tween-80); 113 % of control and 115 % of control (endpoint: median survival time, dose: 6.25 mg/kg/injection, schedule: Q01DX009 (ip), vehicle: saline); 121 % of control (endpoint: median survival time, dose: 12.5 mg/kg/injection, schedule: Q01DX009 (ip), vehicle: saline); 122 % of control (endpoint: median survival time, dose: 25.0 mg/kg/injection, schedule: Q01DX009 (ip), vehicle: saline); 150 % of control and 162 % of control (endpoint: median survival time, dose: 50.0 mg/kg/injection, schedule: Q01DX009 (ip), vehicle: saline); 91 % of control (endpoint: median survival time, dose: 100.0 mg/kg/injection, schedule: Q01DX009 (ip), vehicle: saline with Tween-80). Also, under “endpoint: median survival time, dose: 100.0 mg/kg/injection, schedule: Q01DX009 (ip), vehicle: saline”, the T/C was 96 % of control and 108 % of control.
With `O=[N+]([O-])c1ccc(C[P+](c2ccccc2)(c2ccccc2)c2ccccc2)cc1`, the T/C (endpoint: mean survival time, dose: 6.25 mg/kg/injection, schedule: Q04DX002 (ip), vehicle: saline with Tween-80) was 86 % of control; the T/C (endpoint: mean survival time, dose: 12.5 mg/kg/injection, schedule: Q04DX002 (ip), vehicle: saline with Tween-80) was 108 % of control; the T/C (endpoint: mean survival time, dose: 25.0 mg/kg/injection, schedule: Q04DX002 (ip), vehicle: saline with Tween-80) is 94 % of control.
Turning to `Brc1ccc(-c2nc3sc(-c4ccc(Br)cc4)nc3s2)cc1`, the T/C by setting is: under setting [13], 108 % of control; under setting [2], 104 % of control; under setting [14], 102 % of control.
Take `O=[N+]([O-])c1ccc(CNc2ncnc3c2ncn3C2OC(CO)C(O)C2O)cc1` (stereo unspecified): the T/C by setting is: (endpoint: mean survival time, dose: 75.0 mg/kg/injection, schedule: Q01DX001 (ip), vehicle: other) 106 % of control; (endpoint: mean survival time, dose: 150.0 mg/kg/injection, schedule: Q01DX001 (ip), vehicle: other) 112 % of control; (endpoint: mean survival time, dose: 300.0 mg/kg/injection, schedule: Q01DX001 (ip), vehicle: other) 100 % of control.

For the origin of these results see PubChem BioAssay AID256 (DTP/NCI, 2004).
